In US8652791B2, “Method of classifying human subjects having adolescent idiopathic scoliosis (AIS) and method for screening for a compound useful in the treatment of AIS and related syndromes causing spinal deformities” (Hopital Sainte-Justine, priority 2002, dated 2014):
“Also recorded” adds a separate entry of the source.

Key:
[1] = tested on: Gi proteins coupled to MT1 and MT2 receptors; assay: Co-immunoprecipitation of Gi proteins coupled to melatonin receptors and their phosphorylation state; assay type: cell-based, human; conditions: for phosphorylated forms of Gi3 and Gi2 in MT1 or MT2 immune complexes: overnight treatment of the cells
Procedure: Co-immunoprecipitation assays were performed with anti-MT1 and anti-MT2 specific antibodies (kind gifts of Dr Debora Angeloni and Prof Franco Fraschini, University of Milan, Italy) to identify Gi proteins coupled to individual melatonin receptor in human MG-63 osteoblasts (FIG. 9).
The specific antibodies were incubated with membrane fractions purified from osteoblasts untreated and treated with melatonin (10^−9M), genistein or herbimycin (1 μM, tyrosine kinase inhibitors, Sigma™) or sodium orthovanadate, Na3VO4, (1 mM, tyrosine phosphatase inhibitor, Sigma™) for at least 16 h. Presence of coupled Gi proteins in respective immune-complexes were determined by SDS-PAGE and Western blot with specific Gi antibodies (Santa Cruz Biotechnology Inc., Santa Cruz, Calif., USA) and phosphorylation status of these coupled Gi proteins were determined using anti-phosphoserine, phosphothreonine and phosphotyrosine antibodies (Sigma™) using the same membrane after stripping. Purified recombinant Gi proteins were used as control for antibody specificity.

[2] = tested on: forskolin-stimulated adenylyl cyclase activity in osteoblasts; assay: cAMP accumulation assay in osteoblasts, melatonin as agonist; assay type: cell-based, human
Procedure: Osteoblasts from patients with AIS and control subjects were seeded in quadruplet on 24-wells plate (1×10^5 cells/well) and incubated either with the vehicle alone, dimethyl sulphoxide (DMSO, Sigma™, Oakville, ON, Canada) or the diterpene forskolin (10^−5M, Sigma™) to stimulate the cAMP formation. Inhibition curves of cAMP production were generated by adding melatonin to the forskolin-containing samples in concentrations ranging from 10^−11M to 10^−5M in a final volume of 1 ml of DMEM media with 0.5% bovine serum albumin (BSA, Sigma™). After a 30-minute incubation at 37° C., the cells were lysed and the sample centrifuged at 4° C. The cAMP content was determined in 200 μl aliquot of the supernatant using an enzyme immunoassay kit (Amersham-Pharmacia Biosciences, Mississauga, ON, Canada). All assays were performed in duplicate.
A method of screening of the present invention was performed and identified estrogen as one compound able to modulate the melatonin-signaling pathway impairment in AIS patients. Experiments were performed showing the effect of increasing concentrations of melatonin (10^−11 to 10^−5M) used as known agonist of melatonin-signaling pathway on forskolin-stimulated adenylyl cyclase activity in osteoblasts from two patients with AIS (group 3 see Table 2) treated or not with a physiological dose of estradiol (10^−10M). Results illustrated in panels A and B of FIG. 19 correspond to AIS patient numbered 13 and 29 in Table 1, respectively.

human osteoclasts = assay: Osteoclast pit resorption assay on bone matrix; assay type: cell-based
Procedure: The inhibitory effect of melatonin on osteoclasts activity was performed using normal human osteoclasts derived from peripheral blood. Mel, melatonin; luz, luzindole, a specific MT2 antagonist;
Other functional assays with melatonin using osteoclasts derived from monocytes/lymphocytes fraction isolated from peripheral blood of AIS patients and control subjects are performed. Primary osteoclasts are derived from the peripheral blood of patients and non-scoliotic subjects using 10 ml of blood or less. Anticoagulant-treated blood is layered on the Ficoll-Paque™ solution and centrifuged for a short period of time. Differential migration during centrifugation results in the formation of layers containing different blood cells. Because of their lower density, the lymphocytes are found at the interface between the plasma and the Ficoll-Paque™ with other slowly sedimenting particles (platelet and monocytes). The lymphocytes are then recovered from the interface and subjected to a short washing step with a balanced salt solution to remove any platelets, Ficoll-Paque™ and plasma. The cells are then counted and seeded at high density (1×10^6 cells per cm^2) onto artificial bone or dentin matrix in α-MEM with 10% FBS and antibiotics. After a few days, cells that remain adherent will start to differentiate into osteoclasts, forming large multinucleate cells after 15-20 days.

human osteoblasts = assay: Osteoblast proliferation assay ([3H]-thymidine incorporation); assay type: cell-based; conditions: melatonin 10^-9M
Procedure: An assay was performed to compare the proliferation of osteoblasts of normal subjects with that of scoliotic patients. […]

[3] = tested on: scoliosis formation after pinealectomy; conditions: treatment after pinealectomy in both animal models (chicken, bipedal rats); cited from earlier work
[4] = tested on: MT1 receptor expression in MC3T3-E1 cells; assay: RT-PCR expression analysis of melatonin receptors; assay type: cell-based; conditions: melatonin 10^-7M
Procedure: RT-PCR were performed with specific primers corresponding to melatonin receptor subtypes, MT1 (panel A, FIG. 7), MT2 (panel B, FIG. 7) and OPN (panel C, FIG. 7) using 2 μg of RNA isolated every 2 h during a 24 h cycle from MC3T3-E1 cells treated (+) or not (−) with melatonin (10^−7M). […] PCR products were separated on a 1.5% agarose gel and visualized by ethidium bromide staining.

[5] = tested on: forskolin-stimulated adenylyl cyclase activity in myoblasts; assay: cAMP accumulation assay in skeletal myoblasts, melatonin as agonist; assay type: cell-based, human; conditions: myoblasts from AIS patients
Procedure: The functionality of melatonin signaling is assessed by investigating the ability of Gi proteins to inhibit stimulated adenylyl cyclase activity in intact skeletal myoblasts. Cells prepared from patients with AIS and control subjects are seeded in quadruplet on 24-wells plate (1×10^5 cells/well) and incubated either with dimethyl sulphoxide (DMSO, Sigma™) or forskolin (10^−5M, Sigma™) to stimulate the cAMP formation. To obtain the inhibition curve of cAMP production, melatonin is added to the forskolin-containing samples in concentrations ranging from 10^−11M to 10^−5M in a final volume of 1 ml of DMEM media with 0.5% bovine serum albumin (BSA). After a 30-minute incubation at 37° C., the cells are lysed and the sample centrifuged at 4° C. The cAMP content is determined in 200 μl aliquot of the supernatant using an enzyme immunoassay kit (Amersham-Pharmacia Biosciences).

[6] = Bone mineral density (DEXA) in pinealectomized chicken; assay type: in vivo; conditions: melatonin 3 mg/kg/day ip
Procedure: Treatment with melatonin, 3 mg/kg/day ip, increased BMD in treated animals. […]

[7] = tested on: osteocalcin (OC), osteopontin (OPN) and bone sialoprotein (BSP); assay: Expression analysis of osteoblast terminal differentiation markers; assay type: cell-based; conditions: osteoblasts in vitro
[8] = tested on: Gi proteins (inhibition of adenylyl cyclase activity in osteoblasts); assay: cAMP accumulation assay in osteoblasts, Gpp(NH)p as agonist; assay type: cell-based, human; conditions: forskolin-stimulated
Procedure: The functionality of Gi proteins was assessed by investigating their ability to inhibit adenylyl cyclase activity in osteoblasts. To obtain inhibition curve of cAMP production the non-hydrolysable analogue of GTP, Gpp(NH)p (guanilyl 5′-imidophosphate, Sigma™) was added to the forskolin-containing samples in concentrations ranging from 10 nM to 100 μM. The cAMP content was determined as described above in similar assays with melatonin.
The values reported in FIG. 8 were detected after the administration of 10^−9M Gpp(NH)p, a GTP non-hydrolysable analogue.

## O=c1c(-c2ccc(O)cc2)coc2cc(O)cc(O)c12 [genistein]
[1]
  phosphorylated forms of Gi3 and Gi2 in MT1 or MT2 immune complexes: completely abolished the presence of both phosphorylated forms

## C[C@]12CC[C@@H]3c4ccc(O)cc4CC[C@H]3[C@@H]1CC[C@@H]2O [estradiol]
[2]; osteoblasts from two AIS patients (group 3), estradiol 10^-10M, melatonin 10^-11 to 10^-5M
  effect on the inhibitory effect of melatonin on forskolin-stimulated adenylyl cyclase activity: further block the inhibitory effect of melatonin

## CC(=O)NCCc1c(Cc2ccccc2)[nH]c2ccccc12 [luzindole]
Human osteoclasts; normal human osteoclasts, luzindole added with melatonin
  effect on the inhibition of osteoclasts resorption activity by melatonin: prevents or reduces the inhibitory effect of melatonin

## COc1ccc2[nH]cc(CCNC(C)=O)c2c1 [melatonin]
Human osteoblasts; normal osteoblasts
  osteoblast growth rate ([3H]-thymidine incorporation): increases linearly
Human osteoblasts; osteoblasts from scoliotic patients
  osteoblast growth rate ([3H]-thymidine incorporation): did not respond
[3]
  formation of scoliosis after pinealectomy: prevented the formation of scoliosis
Human osteoclasts; normal human osteoclasts derived from peripheral blood, melatonin 10^-9M to 10^-7M
  osteoclasts resorption activity: inhibits osteoclasts resorption activity
Human osteoclasts; osteoclasts isolated from animals with AIS or related syndrome, reasonably predicted
  resorbing activity of osteoclasts: does not affect resorbing activity
[4]
  MT1 receptor subtype expression (RT-PCR): down regulated
[1]; osteoblast purified membranes, in presence of melatonin
  binding of Gi3 and Gi2 proteins to MT2 receptors: increased
[1]
  phosphorylated forms of Gi3 and Gi2 in MT1 or MT2 immune complexes: completely abolished the presence of both phosphorylated forms
[5]; melatonin 10^-11 to 10^-5M, preliminary tests
  inhibition of cAMP accumulation induced by forskolin: incapacity of melatonin to inhibit cAMP accumulation
[5]; supra pharmacological dose 10^-5M
  inhibition of cAMP accumulation induced by forskolin: able in 2 cases to inhibit cAMP accumulation
[2]; AIS group 1 osteoblasts
  effect on cAMP accumulation: increased cAMP accumulation
[2]; AIS group 2 osteoblasts, even at 10^-7M or 10^-5M melatonin
  inhibition of cAMP accumulation: no significant inhibition; also recorded: did not respond
[2]; AIS group 3 osteoblasts
  response toward melatonin treatment (cAMP): weak response
[2]; AIS group 3 osteoblasts, higher doses of melatonin
  inhibitory effects on adenylyl cyclase activity: some significant inhibitory effects
[2]; AIS group 3 osteoblasts, physiological dose 10^-9M
  inhibition of cAMP accumulation: no significant inhibition
[2]; osteoblasts from control subjects, forskolin 10^-5M, melatonin 10^-11M to 10^-5M, dose-dependent
  reduction of cAMP levels (inhibition of forskolin-stimulated adenylyl cyclase activity): 60-70%
[2]; osteoblasts from patients with AIS
  inhibition of forskolin-stimulated adenylyl cyclase activity: lack of inhibition
[6]
  bone mineral density (BMD): increased BMD
[7]
  expression of osteoblast terminal differentiation markers OC, OPN and BSP: up-regulates

## Nc1nc2c(ncn2[C@@H]2O[C@H](COP(=O)(O)OP(=O)(O)NP(=O)(O)O)[C@@H](O)[C@H]2O)c(=O)[nH]1 [Gpp(NH)p, guanilyl 5′-imidophosphate]
[8]; osteoblasts from a majority of AIS patients
  inhibitory effect on cAMP levels: no inhibitory effect
[8]; osteoblasts from control subjects
  effect on cAMP levels: reduced cAMP levels
